Data: US20160039852A1, “THERAPEUTIC USES OF BISPHOSPHONATES” (THE UNIVERSITY OF SHEFFIELD, priority 2013, published 2016)
“Also recorded” adds a separate entry of the source.

Legend:
[1] = tested on: human mesenchymal stem cells (hMSC); assay: Colony Forming Unit-Fibroblast assay (CFU-F), clonogenic ability of hMSC; format: cell-based; settings: 14 days, listed as Zol
Experimental: Human MSC from established cultures were plated at 10 cells/cm^2 in duplicates in MSC medium. The plates were incubated for 14 days at 37° C. in 5% carbon dioxide in air. At day 14 cultures were stained with Wright's Giemsa stain (VWR International, Leicestershire, UK). Briefly, media was aspirated and the plates were washed with PBS (Gibco). The plates were air dried for 5 minutes and fixed with methanol (Fisher Scientific, Loughborough, UK) for 5 minutes. Wright's Geimsa stain (VWR International) was thereafter added to the plates for 5 minutes and then plates were washed under running tap water. The purple stained colonies were counted using an inverted light microscope (Leica Microsystems, UK). Colonies containing a minimum of 50 cells were considered as one Colony forming unit-fibroblast (CFU-F).

unprenylated RAP1A [2] = assay: Western blot of unprenylated RAP1A in cancer lines; format: cell-based, human and murine; settings: Zol (1 μM) for 72 h
Experimental: (A) A representative example of western blot analysis of human mesenchymal stem cells (MSC) and human and murine prostate cancer cell lines (human: PC3, murine 178-2 BMA), human breast cancer cell line (MDA-MB231), murine multiple myeloma cancer lines (5TGM1 and 5T33) cultured in presence or absence of Zol (1 μM) for 72 h and assessed for the expression of unprenylated RAP1A and GAPDH.
Protein lysates (50 μg) were diluted in equal volume of 2× Laemmli buffer (Gibco) containing Dithiothreitol (DTT, Sigma,UK). The samples were heated at 95° C. for 5 minutes and loaded on a 12% Tris-glycine gel. After electro-blotting, membranes were blocked with 5% Bovine serum albumin (BSA) in 0.1% Tween 20 in PBS (PBS-T) for detection of glyceraldehyde-3-phosphate dehydrogenase (GAPDH) and 5% dry milk in PBS-T for detection of unprenylated RAP1A (Santacruz Biotechnology, Santa Cruz, USA). In case of P-AKT, P-70S6K membranes were blocked with 5%BSA in 1× tris buffered saline and 0.1% tween-20 (TBS-T), where for AKT and P70S6K membranes were blocked with 5% dry milk in TBS-T. All membranes were blocked for 2 hours at room temperature. […] Detection was carried out using enhanced chemi-luminescence plus ECL reaction kit (GE Healthcare, Buckinghamshire, UK) and quantification of protein expression was carried out using image J software.

unprenylated Rap1A [3] = assay: Western blot of unprenylated Rap1A in hMSC; format: cell-based, human; settings: hMSC exposed to increasing amounts of Zol
Experimental: Three times 10^6 hMSC were lysed in mammalian cell lysis buffer (Mammalian cell lysis kit, Sigma-Aldrich, Dorset, UK) containing 250 mM Tris-5 mM EDTA, 750 mM sodium chloride, 0.5% sodium dodecyl sulphate, 2.5% deoxycholic acid and 5% Igepal supplemented with 10 μl of Proteinase inhibitors cocktail (Sigma-Aldrich, Dorset, UK) containing 4-(2-aminoethyl) benzenesulfonyl fluoride (AEBSF), pepstatin A, bestatin, leupeptin, aprotinin and trans-epoxysuccinyl-L-leucyl-amido(4-guanidino)-butane (E-64) according to manufacturer instruction. Phosphatase inhibitor cocktail (Sigma) was also added when preparing lysates for the detection of AKT, pAKT, P70S6K, and p-P70S6K.
Protein lysates (50 μg) were diluted in equal volume of 2× Laemmli buffer (Gibco) containing Dithiothreitol (DTT, Sigma,UK). The samples were heated at 95° C. for 5 minutes and loaded on a 12% Tris-glycine gel. […] Detection was carried out using enhanced chemi-luminescence plus ECL reaction kit (GE Healthcare, Buckinghamshire, UK) and quantification of protein expression was carried out using image J software.
(FPPS) enzyme in the mevalonate pathway and thereby reducing prenylation of small GTPases, such as Rap, Rac, Rho, Rheb (FIG. 3A). […] To this end, levels of unprenylated Rap1A were measured in hMSC exposed to increasing amounts of Zol.

O=P(O)(O)C(O)(Cn1ccnc1)P(=O)(O)O [Zoledronate]
number of clonogenic progenitors (CFU-F) ([1]; hMSC at passage 8, not irradiated, versus PBS control): significant increase; also recorded: higher clonogenic ability
number of CFU-F after irradiation (clonogenic ability) ([1]; hMSC irradiated at 1, 3 and 5Gy versus non irradiated, in presence of Zol): no significant difference; also recorded: complete rescue of the clonogenic ability
mevalonate pathway (unprenylated RAP1A) (unprenylated RAP1A [2]): inhibition of mevalonate pathway
expression of unprenylated Rap1A (unprenylated Rap1A [3]): increased expression
